Values quoted from earlier work in PMC8245892, “Pharmacokinetics of a Single Dose of Turmeric Curcuminoids Depends on Formulation: Results of a Human Crossover Study” (The Journal of Nutrition, 2021).
Structures can show the parent of a compound that is named as a salt.

Legend:
[1] = set-up: method as in PMID 24280069
[2] = tested on: NF-κB; set-up: method as in PMID 24280069
[3] = tested on: phorbol ester–induced PGE2 production; set-up: method as in PMID 11221833; conditions: human cells; compared with unconjugated curcumin
[4] = aqueous buffer (pH 5.0)

For `COc1cc(/C=C/C(O)=C/C(=O)/C=C/c2ccc(O[C@@H]3O[C@H](C(=O)O)[C@@H](O)[C@H](O)[C@H]3O)c(OC)c2)ccc1O` [curcumin monoglucuronide], the Antiproliferative activity [1] is listed as “very little antiproliferative activity” and the “Effect on NF-κB” value [2] is listed as “no effect”.

In the case of `COc1cc(/C=C/C(O)=C/C(=O)/C=C/c2ccc(OS(=O)(=O)O)c(OC)c2)ccc1O` [curcumin sulfate], the “Reduction of phorbol ester–induced PGE2 production” value [3] is listed as “less effective than unconjugated curcumin”.

For `COc1cc(C=CC(=O)CC(=O)C=Cc2ccc(OC3OC(C(=O)O)C(O)C(O)C3O)c(OC)c2)ccc1OC1OC(C(=O)O)C(O)C(O)C1O` (stereo not drawn) [diglucuronide], the Antiproliferative activity [1] is listed as “very little antiproliferative activity” and the “Effect on NF-κB” value [2] is listed as “no effect”.

In the case of curcumin, the Solubility [4] is listed as 0.011 µg/mL.
